In patent US11278555B2, “Combinational therapies for treatment of cancer comprising a bacteriochlorophyll derivative” (Yeda Research and Development Co. Ltd., priority 2016, dated 2022):

Experiments:
[1] = tested on: Foxp3+ Treg, CD8+ T cells, G-MDSC/neutrophils; type: in vivo
Description: (§1) • (i) Bacteriochlorophyll Derivatives—The Bchl derivatives and RGD-conjugates thereof were provided by Steba Biotech (Rehovot, Israel). […] Concentration was verified by spectrophotometric measurement. STL-7012 was provided as dipotassium salt. Working solution was prepared by dissolving STL-7012 K^+ salt in 5% mannitol solution (1 mg/ml). […] WST11 was supplied as a powder and kept in the dark at −20° C. Stock was prepared by dissolving WST11 in DDW containing 5% glucose and 0.67% mannitol, aliquoted and lyophilized. Working solution was reconstituted with DDW and the concentration of solution was confirmed spectrophotometrically. Alternatively, Clinical WST11 (batch: P00611, and 10-130611) was supplied as lyophilized formulation. Material was dissolved in 5% dextrose, aliquoted and stored at −20° C. […] Aliquots were thawed, diluted with saline to a desired concentration and used on the same day at a dose of 75 mg/kg. Cyclophosphamide (CTX, Endoxan®, Baxter Oncology Gmbh, Germany) was purchased from a local pharmacy. A stock solution of 20 mg/ml was prepared by dissolving in 0.9% NaCl, aliquoted and stored at −20° C. Aliquots were thawed, diluted with saline if needed to a desired concentration and used on the same day prepared at indicated doses. • (iii) Murine cell lines—Mammary luciferase (luc)-labeled 4T1 cell line (4T1-Luc) was a kind gift from Dr. Zvi Granot (Faculty of Medicine, The Hebrew University of Jerusalem, Israel); melanoma B16-F10 cell line was obtained from the American Type Culture Collection (ATCC, Manassas, Va.); bladder MB49 cell line was a kind gift from James Allison (MSKCC, New York, USA), and luc-labeled MB49-cell line was established using the murine stem cell virus (MSCV)-puromycin-luc-GFP construct (kindly provided by Dr. Emily Cheng, Human Oncology and Pathogenesis Program, MSKCC). 4T1 and MB49 cells were maintained in DMEM medium and B16-F10 cells in RPMI medium supplemented with 1 mmol/L sodium pyruvate, 10% fetal calf serum (FCS), 250 μg/ml hygromycin, 0.06 mg/ml penicillin and 0.1 mg/ml streptomycin. The cells were grown as monolayer at 37° C. in a humidified atmosphere (5% CO2, 95% air). • (iv) Murine tumor models—Female, Balb/c mice (6-8 week old) were grafted either subcutaneously (s.c.) into the right hind leg or orthotopically with 1×10^6 4T1 cells suspended in 50 or 1000 PBS. […] Whole body imaging of luciferase-transfected tumors and metastases were recorded five minutes following 75 mg Kg^−1 intraperitoneal (i.p.) injection of D-luciferin with respective filter sets. • (vi) PDT treatment protocol: 4T1-Luc cells were grafted in the mammary pad of Balb/c mice. […] Ablation of primary tumors was assessed every 7 days by imaging the tumor's luciferase-mediated bioluminescence signal, using IVIS.

[2] = tested on: s.c. 4T1-luc breast tumors; test: WST11 VTP with or without single dose CTX in mice bearing s.c. 4T1-luc tumors in the hind leg (Scheme 4); type: in vivo, Balb/c mice; conditions: CTX 50 or 150 mg/kg alone; WST11 VTP at low light intensity (100 mW/cm^2) alone; or combination
Description: as §1

[3] = tested on: orthotopic 4T1-Luc breast tumors; test: Whole-body NIR fluorescence imaging of accumulation and clearance in 4T1 tumor bearing mice; type: in vivo; conditions: i.v.
Description: • (i) Bacteriochlorophyll Derivatives—The Bchl derivatives and RGD-conjugates thereof were provided by Steba Biotech (Rehovot, Israel). […] Concentration was verified by spectrophotometric measurement. STL-7012 was provided as dipotassium salt. Working solution was prepared by dissolving STL-7012 K^+ salt in 5% mannitol solution (1 mg/ml). […] WST11 was supplied as a powder and kept in the dark at −20° C. Stock was prepared by dissolving WST11 in DDW containing 5% glucose and 0.67% mannitol, aliquoted and lyophilized. Working solution was reconstituted with DDW and the concentration of solution was confirmed spectrophotometrically. Alternatively, Clinical WST11 (batch: P00611, and 10-130611) was supplied as lyophilized formulation. Material was dissolved in 5% dextrose, aliquoted and stored at −20° C. […] Aliquots were thawed, diluted with saline to a desired concentration and used on the same day at a dose of 75 mg/kg. […] Whole body imaging of luciferase-transfected tumors and metastases were recorded five minutes following 75 mg Kg^−1 intraperitoneal (i.p.) injection of D-luciferin with respective filter sets. • (vi) PDT treatment protocol: 4T1-Luc cells were grafted in the mammary pad of Balb/c mice. […] Ablation of primary tumors was assessed every 7 days by imaging the tumor's luciferase-mediated bioluminescence signal, using IVIS.

[4] = tested on: splenic immune cells of 4T1-bearing mice; test: FACS profile of splenic immune cell populations in 4T1-bearing mice after STL-6014 PDT and Gemzar; type: in vivo
Description: (§2) • (i) Bacteriochlorophyll Derivatives—The Bchl derivatives and RGD-conjugates thereof were provided by Steba Biotech (Rehovot, Israel). […] Concentration was verified by spectrophotometric measurement. STL-7012 was provided as dipotassium salt. Working solution was prepared by dissolving STL-7012 K^+ salt in 5% mannitol solution (1 mg/ml). […] WST11 was supplied as a powder and kept in the dark at −20° C. Stock was prepared by dissolving WST11 in DDW containing 5% glucose and 0.67% mannitol, aliquoted and lyophilized. Working solution was reconstituted with DDW and the concentration of solution was confirmed spectrophotometrically. Alternatively, Clinical WST11 (batch: P00611, and 10-130611) was supplied as lyophilized formulation. Material was dissolved in 5% dextrose, aliquoted and stored at −20° C. At the day of treatment the aliquot was thawed, filtered and the concentration of solution was confirmed spectrophotometrically. • (ii) Chemotherapeutic drugs preparation and storage—Gemcitabine (GEM, Gemzar®, Lilly) was purchased from a local pharmacy as a powder, dissolved in saline to a concentration of 38 mg/ml, aliquoted and stored at −20° C. Aliquots were thawed, diluted with saline to a desired concentration and used on the same day at a dose of 75 mg/kg. Cyclophosphamide (CTX, Endoxan®, Baxter Oncology Gmbh, Germany) was purchased from a local pharmacy. A stock solution of 20 mg/ml was prepared by dissolving in 0.9% NaCl, aliquoted and stored at −20° C. Aliquots were thawed, diluted with saline if needed to a desired concentration and used on the same day prepared at indicated doses. • (iii) Murine cell lines—Mammary luciferase (luc)-labeled 4T1 cell line (4T1-Luc) was a kind gift from Dr. Zvi Granot (Faculty of Medicine, The Hebrew University of Jerusalem, Israel); melanoma B16-F10 cell line was obtained from the American Type Culture Collection (ATCC, Manassas, Va.); bladder MB49 cell line was a kind gift from James Allison (MSKCC, New York, USA), and luc-labeled MB49-cell line was established using the murine stem cell virus (MSCV)-puromycin-luc-GFP construct (kindly provided by Dr. Emily Cheng, Human Oncology and Pathogenesis Program, MSKCC). 4T1 and MB49 cells were maintained in DMEM medium and B16-F10 cells in RPMI medium supplemented with 1 mmol/L sodium pyruvate, 10% fetal calf serum (FCS), 250 μg/ml hygromycin, 0.06 mg/ml penicillin and 0.1 mg/ml streptomycin. The cells were grown as monolayer at 37° C. in a humidified atmosphere (5% CO2, 95% air). • (iv) Murine tumor models—Female, Balb/c mice (6-8 week old) were grafted either subcutaneously (s.c.) into the right hind leg or orthotopically with 1×10^6 4T1 cells suspended in 50 or 1000 PBS. For the rechallenge study, 2×10^5 4T1 cells were orthotopically grafted. For bladder cancer model, 5×10^4 of MB49 or MB49-luciferase cell line were s.c. injected into the right flank of C57B/6 male mice (7-8 weeks old, Taconic, Hudson, N.Y.) 15 days prior to VTP treatment. For the efficacy study of VTP in immune compromised mice, the same number of MB49 cells was injected in the flank of Rag^−/− on C57B/6 background or C57B/6 male mice (7-8 week old, Jackson Laboratory, Bar Harbor, Me.). […] Whole body imaging of luciferase-transfected tumors and metastases were recorded five minutes following 75 mg Kg^−1 intraperitoneal (i.p.) injection of D-luciferin with respective filter sets. • (vi) PDT treatment protocol: 4T1-Luc cells were grafted in the mammary pad of Balb/c mice. […]

[5] = tested on: orthotopic 4T1-Luc tumors; test: STL-6014 PDT and metronomic Gemzar in mice bearing 4T1-Luc tumors in the mammary pad (Scheme 1): primary tumor, survival, lung metastases, re-challenge; type: in vivo, Balb/c mice
Description: as §2

In the case of O=P1(N(CCCl)CCCl)NCCCO1 (stereo not shown) [CTX, Cyclophosphamide], the “number of cells in the draining lymph nodes and spleens” value ([1]; low dose CTX three days prior VTP, on the VTP day) is reported as “reduced”, the “tumor infiltration by regulatory Foxp3+ T cells” value ([1]; three days after CTX administration) is reported as “significantly reduces” and the “G-MDSC/neutrophils in the tumor microenvironment” value ([1]; three days post low dose CTX (VTP day)) is reported as “reduced”. For the same molecule, the primary tumor growth [2] was “unable to suppress primary tumor growth”.

CC[C@H]1c2cc3[nH]c(c(CC(=O)OC)c4nc(cc5[nH]c(cc(n2)[C@@H]1C)c(C(C)=O)c5C)[C@@H](C)[C@@H]4CCC(=O)O)c(C(=O)NCCS(=O)(=O)[O-])c3C.[K+] [STL-7012, 3^1-oxo-15-methoxycarbonylmethyl-Rhodobacteriochlorin 13^1-(2-sulfoethyl) amide dipotassium salt] was tested, and the clearance [3] was “cleared through the liver within a few hours of injection” and the “accumulation in the tumor (NIR fluorescence)” value ([3]; STL-6014 7.5 mg/kg, STL-7012 9.5 mg/kg) was “did not accumulate in the tumor”.

For “3^1-oxo-15-methoxycarbonylmethyl-Rhodobacteriochlorin 13^1-(2-sulfoethyl)amide-17^3-(cycloRGDfK) amide potassium salt [STL-6014]”, the “percentage of G-MDSC/neutrophils and M-MDSC in spleen compared to control” value ([4]; first week post treatment) was “significantly reduced”, the “effect on Treg populations in spleen compared with controls” value ([4]; mouse, in vivo) was “Much smaller effects” and the “survival compared to control (Kaplan-Meier)” value ([5]; 120 days follow up, monotherapy) was “did not show any significant survival difference”. For the same molecule, the “animals with primary tumor regrowth” value ([5]; day 30 post treatment) was 82%.
